According to patent US4716153A, “Stable oral preparation of macrolide antibiotics and method for stabilizing the same” (priority 1982, dated 1987):
Read-outs that look alike come from different tables or passages of the source.

What was measured:
[1] = Elution rate in aqueous solutions of various pH and physiological saline solution; format: physicochemical
Description: After 40 ml of Japan Pharmacopoeia 1st solution (pH 1.2) was placed in a vessel whose temperature was kept constant in a thermostat at 37° C., 200 mg of TMS-19-Q was added and the mixture was stirred by a magnetic stirrer. […] Then, Japan Pharmacopoeia 2nd solution were mixed with the 1st solution, and by using aqueous solutions whose pH values were adjusted to be 2, 3, 4 and 5 and a physiological saline solution, respectively, elution rate of each thereof was measured.
To 40 ml of Japan Pharmacopoeia 1st solution (pH 1.2), 120 ml of water was added, and after the solution was kept in a constant temperature bath controlled at 37° C., 200 mg of midecamycin was added, and the mixture was stirred by a magnetic stirrer. Then, 5 ml aliquots of the solution were sampled in a lapse of time (at 5 minutes, 15 minutes and 30 minutes), and absorbances were measured (wavelength: 232 nm) and elution rate were calculated. Then, Japan Pharmacopoeia 1st solution and Japan Pharmacopoeia 2nd solution were mixed to prepare aqueous solutions whose pH values were adjusted to be 2, 3, 4 and 5, respectively. By using these solutions and physiological saline solution, the elution rates were calculated following the same procedures as those indicated above.
By following the same procedures and under the same conditions as those of Example 31, elution rates of 9-propionyljosamycin were measured.
By following the same procedures and under the same conditions as those of Example 31, elution rates of josamycin were measured.
In addition to the conditions of Example 31, Japan Pharmacopoeia 1st solution and Japan Parmacopoeia 2nd solution were mixed to prepare an aqueous solution having pH of 2.5, and following the same procedures as those of Example 31, elution rates of 9,3"-diacetylmidecamycin were measured.

[2] = AUC after oral administration of tablets to beagle dogs (bioassay of blood); format: in vivo; conditions: for AUC at 6 h: dog, blood, po, 500 mg
Description: An amount of the dissolution accelerators used, showing pH 2.5-4 in an aqueous solution will be described in detail. […] In all of these cases, the elution rate of 3"-propionylleucomycin A5 is less than 60%. […] In order to obtain their good absorbability, generally, it is necessary to use the pH at which the elution rate is favorable. […] The accelerators need to be used in 5-100 mg in formulating preparations. It is particularly preferred that these dissolution accelerators, for example tartaric acid and citric acid are used in a total amount of 40-100 mg at single administration. That is, one tablet is allowed to contain about 40-100 mg in the administration of one tablet a time, and about 20-50 mg each in two tablets a time. It is also particularly preferred, when the antibiotics are applied orally in the form of powders, fine granules, capsules, granules or dry syrups, that the accelerators are used in approximately 40-100 mg to the 16-membered ring macrolide antibiotics given in a 200 mg potency a time. It is suitable for preservation that these dissolution accelerators are used coated with film-forming substances by a microcapsulization technique using the accelerators as core materials.
To a mixture comprising TMS-19-Q and light anhydrous silicic acid, 10% w/w HPMC aqueous solution was added. Then the mixture was kneaded, dried and sieved by the use of a 24 mesh sieve to obtain Granule A.
To a mixture comprising glycine, citric acid anhydride and light silicic acid, 5% w/w HPMC aqueous solution was added as binder, and the mixture was made into granules by fluidized bed method (FB method). Then the granules were dried and sieved through 24 mesh screen to obtain Granule B.
To Granule A and Granule B, L-HPC and Avicel PH301 (to be adjusted by an amount of citric acid added: 52.7-12.7 g) and magnesium stearate were added and mixed. Then, the mixed powder was molded by pressure to the size of 14×8 mm and tablets were obtained, each of which (430 mg) containing 100 mg potency of TMS-19-Q 170 mg glycine and citric acid (0, 10, 20, 30 and 40 mg).

SMILES: CCCC(=O)OC1C(C)OC(OC2C(C)OC(OC3C(CC=O)CC(C)C(O)/C=C/C=C/CC(C)OC(=O)CC(O)C3OC)C(O)C2N(C)C)CC1(C)OC(=O)CC (centres unmarked) [TMS-19-Q, 3"-propionyl leucomycin A5]
- elution rate, pH 1.2, 2 and 3 ([1]; initial pH 1.2, 2 and 3, after 15-minute stirring, 37° C.): ≥ 90%
- elution rate, pH 4 and 5 ([1]; initial pH 4 and 5, after 15-minute stirring, 37° C.): 40-45%
- elution rate in pH 1.2-3 acidic aqueous solution (summary) ([1]; pH 1.2-3, general description): more than 95%
- elution rate in pH 4-5 weak acidic aqueous solution (summary) ([1]; pH 4-5, general description): less than 50%
- elution rate, physiological saline solution ([1]; physiological saline solution, after 15-minute stirring, 37° C.): 10%
- elution rate in physiological saline solution (summary) ([1]; physiological saline solution, general description): less than 15%
- time within which elution was nearly completed ([1]; solutions whose pH is equal to or less than 4.5): ≤ 15 min
- AUC versus amount of citric acid (in words) ([2]; beagles, oral, citric acid 30-40 mg): reached saturation
- blood concentrations or absorbability (in words) ([2]; beagles, oral, citric acid more than 30 mg per tablet): Good blood concentrations or absorbability
- AUC at 6 h ([2]; read-out: AUC (area under a blood level versus time curve), 0 mg citric acid): 11800 ng·h/mL
- AUC at 6 h ([2]; read-out: AUC (area under a blood level versus time curve), 10 mg citric acid): 12300 ng·h/mL
- AUC at 6 h ([2]; read-out: AUC (area under a blood level versus time curve), 20 mg citric acid): 17000 ng·h/mL
- AUC at 6 h ([2]; read-out: AUC (area under a blood level versus time curve), 30 mg citric acid): 20500 ng·h/mL
- AUC at 6 h ([2]; read-out: AUC (area under a blood level versus time curve), 40 mg citric acid): 20900 ng·h/mL
